Experiments:
[1] = target: 5'-AMP-activated protein kinase catalytic subunit alpha-2 (Homo sapiens) (UniProt P54646)
[2] = target: Calcium/calmodulin-dependent protein kinase type II subunit beta (Homo sapiens) (UniProt Q13554)
[3] = target: Calcium/calmodulin-dependent protein kinase type II subunit gamma (Homo sapiens) (UniProt Q13555)
[4] = target: Glycogen synthase kinase-3 beta (Homo sapiens, UniProt P49841)
[5] = target: Dual specificity mitogen-activated protein kinase kinase 2 (Homo sapiens, UniProt P36507)
[6] = target: T1, Mitogen-activated protein kinase kinase kinase 5 (Homo sapiens) (UniProt Q99683)
T1 sequence (whole entry): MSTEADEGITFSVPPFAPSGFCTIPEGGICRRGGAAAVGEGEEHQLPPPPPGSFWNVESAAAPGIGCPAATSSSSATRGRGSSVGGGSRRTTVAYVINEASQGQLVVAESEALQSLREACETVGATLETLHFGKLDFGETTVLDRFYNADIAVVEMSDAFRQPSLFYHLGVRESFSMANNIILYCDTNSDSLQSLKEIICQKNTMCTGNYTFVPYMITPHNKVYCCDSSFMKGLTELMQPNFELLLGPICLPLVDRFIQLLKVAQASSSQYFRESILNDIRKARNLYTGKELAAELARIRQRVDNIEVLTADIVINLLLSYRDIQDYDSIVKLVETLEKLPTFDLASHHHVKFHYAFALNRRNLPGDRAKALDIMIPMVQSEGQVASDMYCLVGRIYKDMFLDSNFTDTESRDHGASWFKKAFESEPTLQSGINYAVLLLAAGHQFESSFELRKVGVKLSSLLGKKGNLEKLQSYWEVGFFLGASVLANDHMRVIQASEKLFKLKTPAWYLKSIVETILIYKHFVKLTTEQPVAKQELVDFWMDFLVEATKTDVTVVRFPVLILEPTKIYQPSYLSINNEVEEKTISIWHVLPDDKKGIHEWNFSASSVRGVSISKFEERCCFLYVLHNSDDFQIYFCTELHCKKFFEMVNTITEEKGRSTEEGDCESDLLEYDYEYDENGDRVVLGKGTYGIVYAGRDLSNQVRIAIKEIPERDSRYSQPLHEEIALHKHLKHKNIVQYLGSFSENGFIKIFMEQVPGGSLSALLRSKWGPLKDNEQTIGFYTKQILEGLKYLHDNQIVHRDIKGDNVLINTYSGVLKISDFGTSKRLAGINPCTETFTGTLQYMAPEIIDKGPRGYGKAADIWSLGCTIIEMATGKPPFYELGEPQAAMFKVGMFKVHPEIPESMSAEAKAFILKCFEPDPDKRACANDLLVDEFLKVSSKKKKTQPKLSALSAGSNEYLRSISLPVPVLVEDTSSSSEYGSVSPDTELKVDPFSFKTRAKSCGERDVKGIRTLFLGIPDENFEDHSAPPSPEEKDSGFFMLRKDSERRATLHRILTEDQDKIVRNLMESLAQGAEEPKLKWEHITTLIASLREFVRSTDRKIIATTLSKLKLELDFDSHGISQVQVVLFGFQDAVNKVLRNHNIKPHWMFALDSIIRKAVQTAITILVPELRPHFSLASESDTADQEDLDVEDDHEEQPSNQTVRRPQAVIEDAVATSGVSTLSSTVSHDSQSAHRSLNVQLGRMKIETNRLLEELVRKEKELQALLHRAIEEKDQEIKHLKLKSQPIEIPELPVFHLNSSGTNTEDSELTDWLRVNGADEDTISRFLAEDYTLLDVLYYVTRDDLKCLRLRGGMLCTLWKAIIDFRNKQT

[7] = target: Mitogen-activated protein kinase 3 (Homo sapiens, UniProt P27361)
[8] = target: Serine/threonine-protein kinase 26 (Homo sapiens) (UniProt Q9P289)
[9] = target: T2, Serine/threonine-protein kinase Nek2 (Homo sapiens) (UniProt P51955)
T2 sequence (whole entry): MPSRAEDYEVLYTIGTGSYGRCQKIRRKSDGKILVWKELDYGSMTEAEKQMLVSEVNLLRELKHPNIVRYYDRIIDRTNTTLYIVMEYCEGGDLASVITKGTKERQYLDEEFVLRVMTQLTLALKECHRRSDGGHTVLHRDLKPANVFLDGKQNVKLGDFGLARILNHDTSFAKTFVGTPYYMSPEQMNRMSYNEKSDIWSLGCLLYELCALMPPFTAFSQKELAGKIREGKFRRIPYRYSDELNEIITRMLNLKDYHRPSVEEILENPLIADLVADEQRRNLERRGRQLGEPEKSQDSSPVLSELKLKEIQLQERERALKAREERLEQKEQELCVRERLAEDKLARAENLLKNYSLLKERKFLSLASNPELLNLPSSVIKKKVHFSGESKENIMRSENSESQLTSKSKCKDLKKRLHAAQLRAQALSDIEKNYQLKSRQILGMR

[10] = target: Serine/threonine-protein kinase RIO2 (Homo sapiens) (UniProt Q9BVS4)
[11] = target: Ribosomal protein S6 kinase alpha-3 (Homo sapiens) (UniProt P51812)
[12] = target: Serine/threonine-protein kinase 38 (Homo sapiens) (UniProt Q15208)
[13] = target: T3, Serine/threonine-protein kinase VRK3 (Homo sapiens) (UniProt Q8IV63)
T3 sequence (whole entry): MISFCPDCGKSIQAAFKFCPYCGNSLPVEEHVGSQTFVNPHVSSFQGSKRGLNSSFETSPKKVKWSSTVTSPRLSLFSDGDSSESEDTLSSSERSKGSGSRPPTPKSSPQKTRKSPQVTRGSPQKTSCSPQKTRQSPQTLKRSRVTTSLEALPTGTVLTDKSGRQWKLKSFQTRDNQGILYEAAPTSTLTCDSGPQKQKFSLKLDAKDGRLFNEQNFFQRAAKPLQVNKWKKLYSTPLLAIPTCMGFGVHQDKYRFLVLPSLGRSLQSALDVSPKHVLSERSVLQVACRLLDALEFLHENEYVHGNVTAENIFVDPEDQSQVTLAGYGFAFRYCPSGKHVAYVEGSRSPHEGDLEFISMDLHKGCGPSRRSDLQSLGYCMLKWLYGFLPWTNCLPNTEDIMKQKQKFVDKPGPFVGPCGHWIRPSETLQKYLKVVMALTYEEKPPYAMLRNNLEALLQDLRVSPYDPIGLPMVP

[14] = target: Serine/threonine-protein kinase 25 (Homo sapiens) (UniProt O00506)
Sequence of Serine/threonine-protein kinase 25 (Homo sapiens) (O00506 whole entry, looked up): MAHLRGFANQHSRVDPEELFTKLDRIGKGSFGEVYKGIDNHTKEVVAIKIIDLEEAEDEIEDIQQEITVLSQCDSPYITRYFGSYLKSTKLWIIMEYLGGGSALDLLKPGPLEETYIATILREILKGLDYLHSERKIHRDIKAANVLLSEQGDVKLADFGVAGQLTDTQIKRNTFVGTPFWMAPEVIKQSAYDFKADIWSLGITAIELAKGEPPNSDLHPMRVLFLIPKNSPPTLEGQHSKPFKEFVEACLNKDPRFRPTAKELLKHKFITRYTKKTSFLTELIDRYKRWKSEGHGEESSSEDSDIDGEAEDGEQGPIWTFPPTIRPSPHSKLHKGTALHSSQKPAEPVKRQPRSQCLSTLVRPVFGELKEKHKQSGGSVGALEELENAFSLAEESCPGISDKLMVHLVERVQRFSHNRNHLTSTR

Sequence of Calcium/calmodulin-dependent protein kinase type II subunit gamma (Homo sapiens) (Q13555 whole entry): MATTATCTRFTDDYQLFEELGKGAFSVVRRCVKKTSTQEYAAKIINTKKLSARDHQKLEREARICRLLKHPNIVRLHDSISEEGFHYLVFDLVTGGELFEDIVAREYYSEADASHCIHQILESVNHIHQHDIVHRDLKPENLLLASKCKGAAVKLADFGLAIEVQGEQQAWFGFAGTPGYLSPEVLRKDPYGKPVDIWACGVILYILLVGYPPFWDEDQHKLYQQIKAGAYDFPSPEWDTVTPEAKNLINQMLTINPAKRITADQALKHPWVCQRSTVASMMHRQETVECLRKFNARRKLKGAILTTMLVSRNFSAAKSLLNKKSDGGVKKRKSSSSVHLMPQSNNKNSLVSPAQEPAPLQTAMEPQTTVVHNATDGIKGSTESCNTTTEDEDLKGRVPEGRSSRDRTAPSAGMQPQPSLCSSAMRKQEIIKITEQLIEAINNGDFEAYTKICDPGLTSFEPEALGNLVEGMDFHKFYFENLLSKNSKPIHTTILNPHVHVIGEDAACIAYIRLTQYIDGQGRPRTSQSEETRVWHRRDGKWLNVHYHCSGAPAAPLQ
Sequence of Dual specificity mitogen-activated protein kinase kinase 2 (P36507 whole entry): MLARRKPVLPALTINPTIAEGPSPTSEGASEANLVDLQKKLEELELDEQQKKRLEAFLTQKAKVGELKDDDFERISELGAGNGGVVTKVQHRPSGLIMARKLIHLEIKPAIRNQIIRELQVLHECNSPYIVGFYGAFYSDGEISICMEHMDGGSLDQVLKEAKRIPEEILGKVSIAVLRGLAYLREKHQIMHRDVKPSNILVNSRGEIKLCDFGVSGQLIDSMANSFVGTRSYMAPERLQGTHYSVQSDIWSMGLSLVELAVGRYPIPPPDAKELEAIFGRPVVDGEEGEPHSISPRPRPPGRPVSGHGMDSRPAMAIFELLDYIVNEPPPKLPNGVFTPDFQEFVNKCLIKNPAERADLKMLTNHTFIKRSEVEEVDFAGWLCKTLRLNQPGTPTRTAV
Sequence of Serine/threonine-protein kinase RIO2 (Homo sapiens) (Q9BVS4 whole entry, looked up): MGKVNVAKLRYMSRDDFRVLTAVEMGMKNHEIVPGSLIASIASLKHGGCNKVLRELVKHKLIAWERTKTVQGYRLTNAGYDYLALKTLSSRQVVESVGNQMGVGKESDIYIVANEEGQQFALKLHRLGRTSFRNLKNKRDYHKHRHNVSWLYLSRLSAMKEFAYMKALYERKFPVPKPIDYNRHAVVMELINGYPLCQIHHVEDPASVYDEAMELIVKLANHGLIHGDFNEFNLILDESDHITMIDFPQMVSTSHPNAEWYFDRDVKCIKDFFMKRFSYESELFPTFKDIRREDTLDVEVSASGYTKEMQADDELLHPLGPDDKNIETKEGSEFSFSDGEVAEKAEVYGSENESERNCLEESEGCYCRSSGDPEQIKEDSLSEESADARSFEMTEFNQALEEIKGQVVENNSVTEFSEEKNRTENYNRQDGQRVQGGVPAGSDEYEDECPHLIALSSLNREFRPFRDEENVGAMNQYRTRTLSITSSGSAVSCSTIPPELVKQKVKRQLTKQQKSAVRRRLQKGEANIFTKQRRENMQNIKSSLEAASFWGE
Sequence of Glycogen synthase kinase-3 beta (P49841 whole entry, looked up): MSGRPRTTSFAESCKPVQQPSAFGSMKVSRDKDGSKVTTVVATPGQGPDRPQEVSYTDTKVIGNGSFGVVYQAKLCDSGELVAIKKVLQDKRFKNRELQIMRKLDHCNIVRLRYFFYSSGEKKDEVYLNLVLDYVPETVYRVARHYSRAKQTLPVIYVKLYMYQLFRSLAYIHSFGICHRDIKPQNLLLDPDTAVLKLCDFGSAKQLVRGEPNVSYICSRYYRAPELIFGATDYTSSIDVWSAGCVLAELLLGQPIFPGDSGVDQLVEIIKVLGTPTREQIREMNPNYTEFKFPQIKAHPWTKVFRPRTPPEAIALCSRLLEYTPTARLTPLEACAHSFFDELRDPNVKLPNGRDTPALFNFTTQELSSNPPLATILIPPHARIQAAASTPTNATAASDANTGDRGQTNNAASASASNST
Sequence of Ribosomal protein S6 kinase alpha-3 (Homo sapiens) (P51812 whole entry): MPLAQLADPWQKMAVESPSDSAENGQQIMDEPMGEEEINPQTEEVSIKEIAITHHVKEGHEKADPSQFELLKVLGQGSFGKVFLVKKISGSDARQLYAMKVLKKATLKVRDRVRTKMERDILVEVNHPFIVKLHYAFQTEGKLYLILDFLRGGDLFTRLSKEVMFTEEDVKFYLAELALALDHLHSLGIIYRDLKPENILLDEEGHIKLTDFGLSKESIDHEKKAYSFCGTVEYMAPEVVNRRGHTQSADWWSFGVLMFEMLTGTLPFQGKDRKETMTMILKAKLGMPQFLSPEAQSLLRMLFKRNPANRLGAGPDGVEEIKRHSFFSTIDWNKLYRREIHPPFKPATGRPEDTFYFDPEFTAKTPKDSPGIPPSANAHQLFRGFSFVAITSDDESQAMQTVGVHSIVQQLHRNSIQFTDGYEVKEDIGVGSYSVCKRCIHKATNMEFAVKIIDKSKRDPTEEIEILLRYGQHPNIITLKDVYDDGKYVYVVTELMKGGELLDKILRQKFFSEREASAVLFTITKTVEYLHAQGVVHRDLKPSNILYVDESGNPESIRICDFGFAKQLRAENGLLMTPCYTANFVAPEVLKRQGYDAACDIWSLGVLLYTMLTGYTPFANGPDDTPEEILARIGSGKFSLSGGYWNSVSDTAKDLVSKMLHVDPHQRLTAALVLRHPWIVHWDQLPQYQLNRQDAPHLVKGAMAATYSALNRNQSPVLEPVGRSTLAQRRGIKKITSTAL
Sequence of 5'-AMP-activated protein kinase catalytic subunit alpha-2 (Homo sapiens) (P54646 whole entry, looked up): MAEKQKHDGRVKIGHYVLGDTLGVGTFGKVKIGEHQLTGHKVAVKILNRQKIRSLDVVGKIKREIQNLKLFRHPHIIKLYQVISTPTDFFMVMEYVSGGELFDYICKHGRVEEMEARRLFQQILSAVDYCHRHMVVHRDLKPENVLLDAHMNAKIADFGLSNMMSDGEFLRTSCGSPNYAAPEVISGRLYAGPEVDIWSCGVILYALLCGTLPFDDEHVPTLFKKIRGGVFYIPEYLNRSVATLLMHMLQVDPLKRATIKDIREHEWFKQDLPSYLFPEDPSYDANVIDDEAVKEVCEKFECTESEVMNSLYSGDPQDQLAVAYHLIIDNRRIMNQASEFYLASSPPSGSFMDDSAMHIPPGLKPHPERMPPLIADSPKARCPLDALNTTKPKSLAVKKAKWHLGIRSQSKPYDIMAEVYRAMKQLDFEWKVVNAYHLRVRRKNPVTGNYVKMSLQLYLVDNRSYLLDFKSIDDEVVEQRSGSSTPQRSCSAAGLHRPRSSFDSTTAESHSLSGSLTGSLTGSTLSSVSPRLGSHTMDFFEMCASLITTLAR
Sequence of Calcium/calmodulin-dependent protein kinase type II subunit beta (Homo sapiens) (Q13554 whole entry): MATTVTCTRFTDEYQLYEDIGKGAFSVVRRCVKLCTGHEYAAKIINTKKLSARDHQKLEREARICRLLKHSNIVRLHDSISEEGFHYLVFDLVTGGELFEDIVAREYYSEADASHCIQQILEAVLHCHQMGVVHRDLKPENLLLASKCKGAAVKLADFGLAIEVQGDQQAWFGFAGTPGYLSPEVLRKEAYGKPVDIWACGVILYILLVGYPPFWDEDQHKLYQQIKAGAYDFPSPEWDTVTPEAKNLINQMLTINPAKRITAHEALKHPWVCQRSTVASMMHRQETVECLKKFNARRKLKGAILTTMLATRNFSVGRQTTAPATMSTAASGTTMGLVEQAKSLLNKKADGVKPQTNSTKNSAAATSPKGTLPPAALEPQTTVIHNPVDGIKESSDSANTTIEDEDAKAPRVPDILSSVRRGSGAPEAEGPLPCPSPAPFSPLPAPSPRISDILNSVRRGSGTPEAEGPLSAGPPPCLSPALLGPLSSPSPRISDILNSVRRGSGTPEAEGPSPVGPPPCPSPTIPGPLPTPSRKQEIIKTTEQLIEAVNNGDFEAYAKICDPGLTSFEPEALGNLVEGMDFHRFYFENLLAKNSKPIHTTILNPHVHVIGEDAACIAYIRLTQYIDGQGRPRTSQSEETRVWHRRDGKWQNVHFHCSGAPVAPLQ
Sequence of Serine/threonine-protein kinase 38 (Homo sapiens) (Q15208 2-465 limits assumed): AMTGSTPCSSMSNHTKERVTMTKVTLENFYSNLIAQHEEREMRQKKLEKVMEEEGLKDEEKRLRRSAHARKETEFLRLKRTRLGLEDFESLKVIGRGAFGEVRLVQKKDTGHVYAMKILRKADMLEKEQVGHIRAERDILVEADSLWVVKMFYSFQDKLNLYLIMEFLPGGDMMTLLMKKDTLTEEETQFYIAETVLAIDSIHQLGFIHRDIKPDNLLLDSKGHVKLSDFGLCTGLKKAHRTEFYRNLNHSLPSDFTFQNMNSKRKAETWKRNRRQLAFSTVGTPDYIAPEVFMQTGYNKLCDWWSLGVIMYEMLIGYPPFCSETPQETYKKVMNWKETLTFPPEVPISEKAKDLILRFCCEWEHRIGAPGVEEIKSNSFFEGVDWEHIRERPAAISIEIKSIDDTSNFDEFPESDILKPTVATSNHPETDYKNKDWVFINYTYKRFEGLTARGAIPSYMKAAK

Row | Structure (SMILES) | ΔTm [1] | ΔTm [2] | ΔTm [3] | ΔTm [4] | ΔTm [5] | ΔTm [6] | ΔTm [7] | ΔTm [8] | ΔTm [9] | ΔTm [10] | ΔTm [11] | ΔTm [12] | ΔTm [13] | ΔTm [14]
1 | CCOc1cc(/C=C(\C#N)C(N)=O)cc(CSc2ccccc2)c1O | 0 °C | -0.2 °C | -0.1 °C | 1.1 °C | 0.4 °C | 0.1 °C | 0.2 °C | -0.3 °C | 0.3 °C | 0.1 °C | 0.1 °C | 0.3 °C | -0.6 °C | 0.6 °C
2 | CC(C)c1cc(/C=C(\C#N)C(=O)NCCCc2ccccc2)cc(C(C)C)c1O | -0.8 °C | 1.5 °C | 0.5 °C | -1.2 °C | 0.3 °C | 0.3 °C | -0.1 °C | 0.3 °C | 2.1 °C | -0.5 °C | 0.2 °C | 0.7 °C | 0.8 °C | 0.7 °C
3 | CC(C)n1cnc2c(NCc3ccccc3)nc(NCCCO)nc21 | -0.7 °C | 0.1 °C | 0.3 °C | 0.5 °C | -0.3 °C | 0.2 °C | 0.4 °C | -0.3 °C | 0.9 °C | 0.4 °C | 2.5 °C | 0.3 °C | -0.3 °C | 0.1 °C
4 | Oc1ccc(-c2nc(-c3ccc(F)cc3)c(-c3ccncc3)[nH]2)cc1 | -0.7 °C | 0.1 °C | 0.6 °C | 4.7 °C | 0.9 °C | 0.3 °C | 0.4 °C | 0 °C | 0.2 °C | -0.3 °C | 0.3 °C | 0.7 °C | 0.3 °C | 0.5 °C
5 | NC1=NC(=O)/C(=C2\CCNC(=O)c3[nH]c(Br)cc32)N1 [HYMENIALDISINE] | 1 °C | 0.4 °C | 0.2 °C | 7.4 °C | 2 °C | 10.4 °C | 0.9 °C | 4 °C | 0.8 °C | 0.2 °C | 6.3 °C | 1 °C | 0.3 °C | 3.5 °C
6 | O=C1Nc2ccccc2/C1=C1/Nc2ccccc2/C1=N\O | 6.6 °C | 2.1 °C | 5.3 °C | 11 °C | 5.9 °C | 5.6 °C | 0.8 °C | 4.4 °C | 2.8 °C | 5.7 °C | 4.1 °C | 3.8 °C | 2.3 °C | 4.9 °C
7 | Cc1cncc2cccc(S(=O)(=O)N3CCCNC[C@@H]3C)c12 | 1.7 °C | 1.1 °C | 2.9 °C | 0.6 °C | -0.3 °C | 1.8 °C | 0.2 °C | 1.5 °C | -0.2 °C | 0.4 °C | 5.5 °C | 0.6 °C | 0.4 °C | 1.1 °C
8 | Nc1nc(Nc2ccc(S(N)(=O)=O)cc2)nn1C(=S)Nc1c(F)cccc1F | 10.1 °C | 1.6 °C | 4.2 °C | 8 °C | 5.1 °C | 16.8 °C | 3.6 °C | 11.1 °C | 2.5 °C | -0.4 °C | 9.6 °C | 6.4 °C | 0.9 °C | 12 °C
9 | CC(C)N(CCO)c1nc(Nc2cccc(Cl)c2)c2ncn(C(C)C)c2n1 | 0.2 °C | 0.4 °C | 0.6 °C | 2.4 °C | 0.6 °C | 0.4 °C | 1.7 °C | 2.8 °C | 0.7 °C | 0.1 °C | 0.6 °C | 3.3 °C | 0.4 °C | 3.4 °C
10 | Cc1cc2ncc(-c3ccccc3)nc2cc1C | -1 °C | 0.8 °C | 0.4 °C | -0.6 °C | 0 °C | 0.3 °C | -0.6 °C | -0.5 °C | 2.1 °C | -0.5 °C | -0.1 °C | 0.5 °C | 1.1 °C | 0.3 °C
11 | O=C(O)/C=C/c1cc(CO)ccc1CO | 0.7 °C | 0.4 °C | 0.1 °C | 0.1 °C | -0.1 °C | 1.2 °C | 0.2 °C | 0.4 °C | 1 °C | 0.4 °C | 0.3 °C | 0.1 °C | 0.2 °C | 0.5 °C
12 | O=c1sn(Cc2ccccc2)c(=S)n1Cc1ccccc1 | -0.9 °C | 1 °C | 0.4 °C | -1 °C | 0 °C | 0.2 °C | -0.3 °C | 0.4 °C | 1.5 °C | 0.1 °C | -0.4 °C | 0.4 °C | 0.9 °C | 0.5 °C
13 | NC(=O)c1ccc(-c2nc(-c3ccc4c(c3)OCCO4)c(-c3ccccn3)[nH]2)cc1 | -0.7 °C | 1 °C | 0.3 °C | 0.6 °C | -0.1 °C | 0.3 °C | -0.1 °C | -1.1 °C | 1.1 °C | 0.7 °C | 0 °C | 0.5 °C | 0.3 °C | 0 °C
14 | O=c1ccc2ccc(O)c(O)c2o1 [DAPHNETIN] | -0.1 °C | 0.1 °C | 0 °C | 0.2 °C | -0.3 °C | -0.6 °C | 0.3 °C | -0.4 °C | 0.7 °C | 0.7 °C | 0.1 °C | 0.3 °C | -0.1 °C | -0.5 °C

— ChEMBL document CHEMBL1145498, “A systematic interaction map of validated kinase inhibitors with Ser/Thr kinases” (Proc Natl Acad Sci U S A, 2007)
